Data from US8802597B2, “Herbicidal pyrimidines” (E I du Pont de Nemours and Company, priority 2003, dated 2014).

Key:
Format in all cases: in vivo
[1] = system: velvetleaf (Abutilon theophrasti); test: Test B pre/postemergence; details: for Velvetleaf plant response rating: Postemergence; for Plant response rating, Velvetleaf: Preemergence
Method in brief: (§1)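 Compounds in non-phytotoxic solvent with surfactant applied preemergence to planted seeds or postemergence to plants 2 to 18 cm tall (1- to 4-leaf stage). Greenhouse 13 to 15 days, then visual rating against controls on a 0 to 100 scale (100 = complete control).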

[2] = system: crabgrass (Digitaria sanguinalis); test: Test B pre/postemergence; details: for Crabgrass plant response rating: Postemergence; for Plant response rating, Crabgrass: Preemergence
Method in brief: as §1

[3] = system: lambsquarters (Chenopodium album); test: Test B pre/postemergence; details: for Lambsquarters plant response rating: Postemergence; for Plant response rating, Lambsquarters: Preemergence
Method in brief: as §1

corn (Zea mays) = test: Test B pre/postemergence; details: for Corn plant response rating: Postemergence; for Plant response rating, Corn: Preemergence
Method in brief: as §1

[4] = system: wheat (Triticum aestivum); test: Test B pre/postemergence; details: for Wheat plant response rating: Postemergence; for Plant response rating, Wheat: Preemergence
Method in brief: as §1

[5] = system: pigweed (Amaranthus retroflexus); test: Test B pre/postemergence; details: for Pigweed plant response rating: Postemergence; for Plant response rating, Pigweed: Preemergence
Method in brief: as §1

[6] = system: giant foxtail (Setaria faberii); test: Test B pre/postemergence; details: for Foxtail, Giant plant response rating: Postemergence; for Plant response rating, Foxtail, Giant: Preemergence
Method in brief: as §1

[7] = system: morningglory (Ipomoea coccinea); test: Test B pre/postemergence; details: for Morningglory plant response rating: Postemergence; for Plant response rating, Morningglory: Preemergence
Method in brief: as §1

[8] = system: barnyardgrass (Echinochloa crus-galli); test: Test B pre/postemergence; details: for Barnyardgrass plant response rating: Postemergence; for Plant response rating, Barnyardgrass: Preemergence
Method in brief: as §1

[9] = system: cocklebur (Xanthium strumarium); test: Test B pre/postemergence; details: for Cocklebur plant response rating: Postemergence; for Plant response rating, Cocklebur: Preemergence
Method in brief: as §1

[10] = system: Surinam grass (Brachiaria decumbens); test: Test B pre/postemergence; details: for Surinam Grass plant response rating: Postemergence; for Plant response rating, Surinam Grass: Preemergence
Method in brief: as §1

rice (Oryza sativa) = test: Test B flooded paddy test; details: Flood, scale 0 to 100
Method in brief: (§2)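 Visual injury scoring (0 = no effect, 100 = complete control) versus controls made 13 to 15 days after treatment in the greenhouse. Test species were grown in flooded paddy to the 2-leaf stage: rice, barnyardgrass, umbrella sedge, duck salad.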

[11] = system: umbrella sedge (Cyperus difformis); test: Test B flooded paddy test; details: Flood, scale 0 to 100
Method in brief: as §2

[12] = system: barnyardgrass (Echinochloa crus-galli); test: Test B flooded paddy test; details: Flood, scale 0 to 100
Method in brief: as §2

[13] = system: duck salad (Heteranthera limosa); test: Test B flooded paddy test; details: Flood, scale 0 to 100
Method in brief: as §2

[14] = system: blackgrass (Alopecurus myosuroides); test: Test B postemergence; details: scale 0 to 100 (0 no effect, 100 complete control)
Method in brief: as §1

wild oat (Avena fatua) = test: Test B postemergence; details: scale 0 to 100 (0 no effect, 100 complete control)
Method in brief: as §1

[15] = 62 g ai/ha, scale 0 to 100 (0 no effect, 100 complete control)
[16] = 125 g ai/ha, scale 0 to 100 (0 no effect, 100 complete control)
[17] = 62 g ai/ha, scale 0 to 100, 0 no effect, 100 complete control

## CCCOC(=O)c1nc(C2CC2)nc(N)c1Cl [Compound 75]
[1]; [15]
  Velvetleaf plant response rating: 70
[1]; [16]
  Velvetleaf plant response rating: 100
  Plant response rating, Velvetleaf: 100
[1]; [17]
  Plant response rating, Velvetleaf: 80
[2]; [15]
  Crabgrass plant response rating: 70
[2]; [16]
  Crabgrass plant response rating: 80
  Plant response rating, Crabgrass: 90
[2]; [17]
  Plant response rating, Crabgrass: 80
[3]; [15]
  Lambsquarters plant response rating: 90
[3]; [16]
  Lambsquarters plant response rating: 100
  Plant response rating, Lambsquarters: 100
[3]; [17]
  Plant response rating, Lambsquarters: 100
Corn (Zea mays); [15]
  Corn plant response rating: 60
Corn (Zea mays); [16]
  Corn plant response rating: 70
  Plant response rating, Corn: 80
Corn (Zea mays); [17]
  Plant response rating, Corn: 50
[4]; [15]
  Wheat plant response rating: 50
[4]; [16]
  Wheat plant response rating: 70
  Plant response rating, Wheat: 70
[4]; [17]
  Plant response rating, Wheat: 30
[5]; [15]
  Pigweed plant response rating: 80
[5]; [16]
  Pigweed plant response rating: 90
  Plant response rating, Pigweed: 100
[5]; [17]
  Plant response rating, Pigweed: 100
[6]; [15]
  Foxtail, Giant plant response rating: 60
[6]; [16]
  Foxtail, Giant plant response rating: 80
  Plant response rating, Foxtail, Giant: 90
[6]; [17]
  Plant response rating, Foxtail, Giant: 30
[7]; [15]
  Morningglory plant response rating: 100
[7]; [16]
  Morningglory plant response rating: 100
  Plant response rating, Morningglory: 100
[7]; [17]
  Plant response rating, Morningglory: 80
[8]; [15]
  Barnyardgrass plant response rating: 80
[8]; [16]
  Barnyardgrass plant response rating: 90
  Plant response rating, Barnyardgrass: 80
[8]; [17]
  Plant response rating, Barnyardgrass: 60
[9]; [15]
  Cocklebur plant response rating: 70
[9]; [16]
  Cocklebur plant response rating: 100
  Plant response rating, Cocklebur: 90
[9]; [17]
  Plant response rating, Cocklebur: 90
[10]; [15]
  Surinam Grass plant response rating: 70
[10]; [16]
  Surinam Grass plant response rating: 80
  Plant response rating, Surinam Grass: 80
[10]; [17]
  Plant response rating, Surinam Grass: 70
Rice (Oryza sativa); 125 g ai/ha
  Plant response rating, Rice: 0
Rice (Oryza sativa); 500 g ai/ha
  Plant response rating, Rice: 70
[11]; 125 g ai/ha
  Plant response rating, Sedge, Umbrella: 0
[11]; 500 g ai/ha
  Plant response rating, Sedge, Umbrella: 10
[12]; 125 g ai/ha
  Plant response rating, Barnyardgrass: 0
[12]; 500 g ai/ha
  Plant response rating, Barnyardgrass: 70
[13]; 125 g ai/ha
  Plant response rating, Ducksalad: 0
[13]; 500 g ai/ha
  Plant response rating, Ducksalad: 70
[14]; 62 g ai/ha
  Blackgrass plant response rating: 50
[14]; 125 g ai/ha
  Blackgrass plant response rating: 60
Wild oat (Avena fatua); 62 g ai/ha
  Oat, Wild plant response rating: 50
Wild oat (Avena fatua); 125 g ai/ha
  Oat, Wild plant response rating: 60
